Converted amounts (≈) assume the structure as drawn.
What was measured:
Type in all cases: cell-based
[1] = test system: platelet aggregation induced by arachidonic acid (AA) in washed rabbit platelets; assay: Inhibition of arachidonic acid-induced aggregation of washed rabbit platelets (turbidimetry, Lumi-aggregometer); conditions: Oryctolagus cuniculus; for activity at 100 µg/mL: 0.05 h, AA 100 μM, compound 100 μg/ml, preincubated at 37° for 3 min, mean ± SEM (n); for IC50: AA 100 μg/ml
Method: (§1) The pharmacological activity of these compounds were determined according to G.V.R. Born by turbidimetry (J. Physiol., 1963, 168, 178). Based on the method, samples were suspended in rabbit platelets which were washed with platelet-rich plasma, the aggregation was then counted by the Lumi-aggregometer (Model 1020, Paytoon, Canada). Formula (I-III) at the concentration of 100 μg/ml are found to inhibit the platelet aggregation perfectly which was induced by arachidonic acid (AA), collagen, ADP, and PAF. Since the structures of these compounds are different from those of known antiplatelet agents, the present invention have the potential for further development.
4. AA (arachidonic acid), purchased from Sigma, was dissolved in deionized water.
(§2) Platelet suspension was prepared from EDTA-anticoagulated Platelet-rich plasma according to washing procedures described previously (Teng, C. M. et. al., Thromb Haemost 59, 304, 1991). Platelets were counted by Hemalaser 2 (Sebia, France) and adjusted to a concentration of 4.5×10^8 platelets/mL. Platelet pellets were finally suspended in Tyrode's buffer (pH 7.4) of the following composition: NaCl (136.8 mM), KCl (2.8 mM), NaHCO3 (11.9 mM), MgCl2 (2.1 mM), NaH2 PO4 (0.33 mM), CaCl2 (1 mM), glucose (11.2 mM) containing 0.35% bovine serum albumin.
(§3) Aggregation was measured by the turbidimetry method as described by O'Brien (J Clin Pathol 15, 452, 1962). ATP released from platelets was detected by the bioluminescence method of DeLuca and McElory (Methods Enzymol 57, 3, 1978). Both aggregation and ATP release were measured simultaneously in a Lumi-aggregometer (model 1020B, Payton, Canada) connected to two dt/al-channel recorders. Platelet preparations were stirred at 900 rpm. When DMSO was used as solvent, its final concentration was fixed at 0.5% (v/v) to eliminate the effect of the solvent. For the calculation of percentage aggregation, the absorbance of platelet suspension was designated as 0% aggregation and the absorbance of platelet-free Tyrode's solution as 100% aggregation. The antiplatelet effects were shown in Table 1 and the inhibitory concentrations for 50% aggregation (IC50) were expressed in Table 2.

[2] = test system: platelet aggregation induced by collagen (Col) in washed rabbit platelets; assay: Inhibition of collagen-induced aggregation of washed rabbit platelets (turbidimetry, Lumi-aggregometer); conditions: Oryctolagus cuniculus, Col 10 μg/ml; for activity at 100 µg/mL: 0.05 h, compound 100 μg/ml, preincubated at 37° for 3 min, mean ± SEM (n)
Method: as §1
2. Collagen (type I: bovine Achilles tendon), from the Sigma Chemical Co., was homogenized in 25 mM acetic acid and stored (1 mg/mL) at -70° C.
as §2, §3

[3] = test system: platelet aggregation induced by thrombin (Thr) in washed rabbit platelets; assay: Inhibition of thrombin-induced aggregation of washed rabbit platelets (turbidimetry, Lumi-aggregometer); conditions: Oryctolagus cuniculus, Thr 0.1 U/ml; for activity at 100 µg/mL: 0.05 h, compound 100 μg/ml, preincubated at 37° for 3 min, mean ± SEM (n)
Method: as §1
1. Bovine thrombin, from the Parke Davis Co., was dissolved in 50% (v/v) glycerol for a stock solution of 100 NIH units/mL.
as §2, §3

[4] = test system: platelet aggregation induced by platelet-activating factor (PAF) in washed rabbit platelets; assay: Inhibition of PAF-induced aggregation of washed rabbit platelets (turbidimetry, Lumi-aggregometer); conditions: Oryctolagus cuniculus, PAF 2 nM
Method: as §1
3. PAF (1-O-alkyl-2-acetyl-sn-glycerol-3-phosphorylcholine), purchased from Sigma, was dissolved in chloroform and diluted into 0.1% BSA-saline solution immediately prior to use.
as §2, §3

| IC50 [1] | IC50 [2] | IC50 [3] | IC50 [4] | SMILES | activity at 100 µg/mL [1] | activity at 100 µg/mL [2] | activity at 100 µg/mL [3] |
| --- | --- | --- | --- | --- | --- | --- | --- |
| > 50 µg/mL | > 50 µg/mL | > 50 µg/mL | > 50 µg/mL | C=C1CC(C)(COc2cc(=O)oc3ccccc23)OC1=O (stereo not shown) [Compound 1, 4-[(2,3,4,5-Tetrahydro-2-methyl-4-methylene-5-oxo-2-furanyl)methoxy]-2H-1-benzopyran-2-one] | 23.3 ± 12.6% | 8.5 ± 6.9% | 74.4 ± 9.6% |
| 26.1 µg/mL (≈ 91.1 µM) | – | > 50 µg/mL | > 50 µg/mL | C=C1CC(C)(COc2ccc3ccc(=O)oc3c2)OC1=O (stereo not shown) [Compound 3, 7-[(2,3,4,5-Tetrahydro-2-methyl-4-methylene-5-oxo-2-furanyl)methoxy]-2H-1-benzopyran-2-one] | 0% | 0% | 22.8 ± 6.6% |
| 10.5 µg/mL (≈ 36.9 µM) | – | – | – | C=C1CC(C)(COc2cccc3ccc(=O)[nH]c23)OC1=O (stereo not shown) [Compound 5, 8-[(2,3,4,5-Tetrahydro-2-methyl-4-methylene-5-oxo-2-furanyl)methoxy]-2(1H)-quinolinone] | 0% | 0% | 25.9 ± 0.7% |
| 8.3 µg/mL (≈ 23.9 µM) | – | > 50 µg/mL | > 50 µg/mL | C=C1CC(COc2cccc3ccc(=O)[nH]c23)(c2ccccc2)OC1=O (stereo not shown) [Compound 6, 8-[(2,3,4,5-Tetrahydro-4-methylene-5-oxo-2-phenyl-2-furanyl)methoxy]-2(1H)-quinolinone] | 0% | 0% | 54.3 ± 1.3% |
| – | 27.2 µg/mL (≈ 101 µM) | > 50 µg/mL | 47.9 µg/mL (≈ 178 µM) | C=C1CC(C)(COc2cccc3cccnc23)OC1=O (stereo not shown) [Compound 7, 8-[(2,3,4,5-Tetrahydro-2-methyl-4-methylene-5-oxo-2-furanyl)methoxy]quinoline] | 0% | 0% | 17.4 ± 7.9% |
| – | 16.2 µg/mL (≈ 57.3 µM) | > 50 µg/mL | 39.6 µg/mL (≈ 140 µM) | C=C1CC(C)(COc2cccc3ccc(C)nc23)OC1=O (stereo not shown) [Compound 10, 8-[(2,3,4,5-Tetrahydro-2-methyl-4-methylene-5-oxo-2-furanyl)methoxy]-2-methylquinoline] | 0% | 0% | 0% |

Further lines, the compound ahead of its results:

| SMILES | IC50 [1] | IC50 [2] | IC50 [3] | IC50 [4] | activity at 100 µg/mL [1] | activity at 100 µg/mL [2] | activity at 100 µg/mL [3] |
| --- | --- | --- | --- | --- | --- | --- | --- |
| C=C1CC(COc2cc(=O)oc3ccccc23)(c2ccccc2)OC1=O (stereo not shown) [Compound 2, 4-[(2,3,4,5-Tetrahydro-4-methylene-5-oxo-2-phenyl-2-furanyl)methoxy]-2H-1-benzopyran-2-one] | 2.86 µg/mL (≈ 8.21 µM) | – | – | 36 µg/mL (≈ 103 µM) | 0% | 0% | 0% |
| C=C1CC(COc2ccc3ccc(=O)oc3c2)(c2ccccc2)OC1=O (stereo not shown) [Compound 4, 7-[(2,3,4,5-Tetrahydro-4-methylene-5-oxo-2-Phenyl-2-furanyl)methoxy]-2H-1-benzopyran-2-one] | 1.27 µg/mL (≈ 3.65 µM) | – | – | 5.7 µg/mL (≈ 16.4 µM) | 0% | 0% | 0% |
| C=C1CC(COc2cccc3cccnc23)(c2ccccc2)OC1=O (stereo not shown) [Compound 8, 8-[(2,3,4,5-Tetrahydro-4-methylene-5-oxo-2-phenyl-2-furanyl)methoxy]quinoline] | – | 4.76 µg/mL (≈ 14.4 µM) | 15.8 µg/mL (≈ 47.6 µM) | 11.1 µg/mL (≈ 33.6 µM) | 0% | 0% | 0% |
| C=C1CC(COc2cccc3cccnc23)(c2ccc(Cl)cc2)OC1=O (stereo not shown) [Compound 9, 8-[(2-(p-Chlorophenyl)-2,3,4,5-tetrahydro-4-methylene-5-oxo-2-furanyl)methoxy]quinoline] | – | 5.17 µg/mL (≈ 14.1 µM) | 13.7 µg/mL (≈ 37.4 µM) | 12.4 µg/mL (≈ 33.8 µM) | 0% | 0% | 0% |
| C=C1CC(COc2cccc3ccc(C)nc23)(c2ccccc2)OC1=O (stereo not shown) [Compound 11, 8-[(2,3,4,5-Tetrahydro-4-methylene-5-oxo-2-phenyl-2-furanyl)methoxy]-2-methylquinoline] | – | 5.76 µg/mL (≈ 16.7 µM) | 14.9 µg/mL (≈ 43.1 µM) | 10.5 µg/mL (≈ 30.5 µM) | 0% | 0% | 0% |
| C=C1CC(COc2cccc3ccc(C)nc23)(c2ccc(Cl)cc2)OC1=O (stereo not shown) [Compound 12, 8-[(2-(p-Chlorophenyl)-2,3,4,5-tetrahydro-4-methylene-5-oxo-2-furanyl)methoxy]-2-methylquinoline] | – | – | – | 10.8 µg/mL (≈ 28.5 µM) | 0% | 0% | 0% |

Reference: patent US5646164A, “α-methylene-γ-butyrolactones: new inhibitors of platelet aggregation” (National Science Council, priority 1995, dated 1997)
